{"source": "patent US20260069584A1", "about": "“METHODS OF TREATING CHRONIC MYELOID LEUKEMIA USING THE TYROSINE KINASE INHIBITOR VODOBATINIB” (Sun Pharma Advanced Research Company Ltd., priority 2022, published 2026)", "key": {"[1]": {"test": "Parts B and C pooled (n=59): safety", "conditions": "in vivo", "excerpt": "Fifty-five of the 59 subjects (93.2%) experienced an AE during the study, of which 62.7% of AEs (n=37) were suspected to be related to the compound of Formula I treatment. Most frequently reported AEs related to the compound of Formula I included thrombocytopenia, neutropenia, nausea, diarrhea, pruritus, fatigue and myalgia. The compound of Formula I-related AEs was generally low grade and resolved with drug hold or dose reduction. […] The AEs were distributed across all the dosing cohorts without any safety trends or association with dose(s). The DLTs (except for 1 event of fatal intracranial hemorrhage) were non-serious AEs and managed well by dose delays and/or reductions. […] A total of 5 subjects died during the study or within 30 days after the last dose of the study drug, which is not unexpected given that all patients enrolled in the study had advanced and heavily pretreated CML. The AEs related to the compound of Formula I treatment were consistent with the advanced CML population with multiple comorbidities and concomitant medications during the study."}, "[2]": {"test": "SAD study in healthy male volunteers: safety and tolerability", "format": "in vivo, human", "conditions": "single-dose 6 mg, 12 mg and 24 mg", "method": "Initially in the single ascending dose (SAD) study the safety, tolerability, and pharmacokinetics of the compound of Formula I at 6 mg, 12 mg, and 24 mg doses in healthy human male volunteers were evaluated. In this study, the healthy male volunteers within the mean age group of 28.7-35 years were orally administered an investigational medicinal product (IMP) or a placebo after an overnight fast (of at least 8 hours). The IMP used in this study was a hard gelatin capsule comprising the compound of Formula I of varying sizes containing either 6 mg or 24 mg of the compound of Formula I and the excipients. For the 12 mg dose, two capsules of 6 mg were used. The placebo formulation containing the excipients matched the compound of Formula I capsules in shape, size, and color. […] The median time of maximum concentration (Tmax: 2.5-3 hours, across dose range) was independent of the dose level. Dose-related increases in exposure (AUC and Cmax) were observed. […] The inter-subject variability, for the PK parameters, was generally higher in the 12 mg dose group when compared with that in the 6 mg and 24 mg dose groups (Table 07, and FIG. 1)\nThere were no clinically significant changes in laboratory parameters, and no clinically significant changes in vital signs or electrocardiogram were recorded for any subject."}}, "data": [{"smiles": "Cc1ccc(C(=O)NNC(=O)c2c(C)cccc2Cl)cc1C#Cc1cnc2ccccc2c1", "note": "[compound of Formula I, N′-(2-chloro-6-methylbenzoyl)-4-methyl-3-[2-(3-quinolyl)ethynyl]-benzohydrazide]", "values": [{"measurement": "AEs suspected to be related to treatment", "setting": "[1]; human", "result": 62.7, "unit": "%"}, {"measurement": "subjects who died during the study or within 30 days after the last dose", "setting": "[1]; human", "result": 5, "unit": "subjects"}, {"measurement": "subjects who experienced an AE", "setting": "[1]; human", "result": 93.2, "unit": "%"}, {"measurement": "subjects who experienced an SAE", "setting": "[1]; human", "result": 34, "unit": "%"}, {"measurement": "subjects with grade 3 or higher-grade AEs", "setting": "[1]; human", "result": "Approximately 64.4%"}, {"measurement": "relatedness of cardiac AEs", "setting": "[1]", "result": "considered unrelated"}, {"measurement": "withdrawal criteria based on QTcF prolongation or safety laboratory tests", "setting": "[2]", "result": "No subject reached the subject withdrawal criteria"}, {"measurement": "safety and tolerability", "setting": "[2]; healthy subjects", "result": "safe and well tolerated"}]}]}
